Data from paper PMC11063903, “Engineering a human P2X2 receptor with altered ligand selectivity in yeast” (The Journal of Biological Chemistry, 2024).
Numbering of substitutions follows the chain as printed.

Tests used:
P2X2 F301W+F303Y+A304W = target: T1, P2X2 F301W+F303Y+A304W (Homo sapiens, UniProt Q9UBL9, A304W/F301W/F303Y); experiment: Fast GCaMP-mScarletI assay in yeast, P2X2 F301W+F303Y+A304W; type: cell-based; conditions: for Bottom, best fit value / Hillslope, best fit value / Top, best fit value: four-parameter logistic fit of ΔF/ΔT
T1 construct: expressed in transfected cells; host or cells: S. cerevisiae BY4741 background
T1 sequence (Q9UBL9 1-471 F301W/F303Y/A304W): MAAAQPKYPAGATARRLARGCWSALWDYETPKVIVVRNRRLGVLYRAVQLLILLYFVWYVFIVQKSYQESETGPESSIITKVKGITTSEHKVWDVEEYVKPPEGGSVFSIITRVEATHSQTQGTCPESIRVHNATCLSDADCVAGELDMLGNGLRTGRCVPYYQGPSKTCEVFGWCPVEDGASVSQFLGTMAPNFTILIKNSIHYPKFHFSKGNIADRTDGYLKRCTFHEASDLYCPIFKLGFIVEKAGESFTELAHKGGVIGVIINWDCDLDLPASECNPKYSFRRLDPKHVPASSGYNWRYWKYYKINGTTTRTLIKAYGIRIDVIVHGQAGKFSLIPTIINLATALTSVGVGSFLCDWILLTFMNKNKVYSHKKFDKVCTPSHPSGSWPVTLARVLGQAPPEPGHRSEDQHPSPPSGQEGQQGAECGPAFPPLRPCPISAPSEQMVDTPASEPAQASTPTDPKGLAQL
Protocol: Figure 4 Unnatural-ligand gating in LBD libraries.A, WT P2X2 was tested with 1 mM ATP, 500 μM AMP-PNP, and compared to ATP with the broken receptor (K81C K83C) control with 1 mM ATP in the fast GCaMP-mScarletI assay (n = 3). […] B, heat map summarizing AMP-PNP signaling (ΔF/ΔT, fast GCaMP-mScarletI assay) in the site-saturation libraries (n = 2–3). All values are normalized to WT P2X2 with saturating amounts of AMP-PNP (500 μM) and therefore represent low signal (ΔF/ΔT) compared to the ATP ligand. C, F301W, F303Y, and A304W were combinatorially combined and tested against the WT, K81C K83C broken P2X2, and the single mutant clones with both ATP (1 mM, black) and AMP-PNP (500 μM, pink). […] Values here represent signal onset and are not normalized to a positive control (n = 2–5). D–K, dose response of each P2X variant with both ATP (black) and AMP-PNP (pink) in the fast GCaMP-mScarletI assay (n = 3). Statistics were performed via one-way ANOVA with Dunnett’s multiple comparisons with to the “broken” K81C K83C negative control. ∗ represents a p value ≤0.05, ∗∗ is p ≤ 0.01, and ∗∗∗ is p ≤ 0.001.
The combined mutations were synergistic, with F303Y + A304W having a predicted additive effect of ca. Ten-fold, relative to the 73-fold seen.
GCaMP assays were performed as follows. P2X2 GCaMP strains were designed with a bi-cistronic reporter, in which the GCaMP protein was followed by a 2A peptide and a mScarletI reporter ([53]). The co-translated mScarletI was designed to act as a control for plasmid loss, GCaMP breakage via nonsense mutation, and contamination. […] P2X2-GCaMP strains were cultured and induced as previously described. Samples were induced for 24 h to allow for the accumulation of the mature GCaMP protein. Cells were washed three times in 0.1 M MES/Tris buffer and resuspended with MES/Tris with supplemental calcium. Cells were loaded onto a black, clear bottom microplate and imaged on a FlexStation3 plate reader. Samples were imaged in “flex” mode. Samples were imaged for 48 s at an interval of 1.6 s. Fluorescence was measured with an excitation at 485 nm, and emission 525 nm. At the 21 s mark, 100 μl ligand solution was transferred to the cells. For strains with mScarlet, fluorescence was read with excitation 570 nm/emission 610 nm. Slopes were calculated from the last 6 points of measurement and were normalized to the positive control samples. Any replicate in which the mScarlet value was measured to be over 2 standard deviations less than the mean for that set was discarded from further analysis.
For multiple comparisons in the site-saturation screening data, One-way ANOVA with Dunnett’s multiple comparisons test was performed where every sample was compared to the “broken” negative control. Significance was plotted where ∗ represents a p value ≤0.05, ∗∗ is p ≤0.01, and ∗∗∗ is p ≤0.001. Dose–response curves were fit with nonlinear regression software using a four-parameter logistic curve. All statistics were calculated and plotted in Graphpad Prism software.

P2X2 A304W = target: T2, P2X2 A304W (Homo sapiens, UniProt Q9UBL9, A304W); experiment: 15-min kinetic GCaMP-mScarletI assay in yeast, P2X2 A304W; type: cell-based; conditions: 1 mM ATP or 5 mM AMP-PNP, 15-min bath incubation, n = 3
T2 construct: expressed in transfected cells; host or cells: S. cerevisiae BY4741 background
T2 sequence (Q9UBL9 1-471 A304W): T1 sequence (Q9UBL9 1-471 F301W/F303Y/A304W) with W301F, Y303F
Protocol: To more fully characterize the selected and engineered P2X2 variants, kinetic assays were performed over a longer period (15 min) that provided a more complete view of receptor gating (Fig. 5, A–H).
Figure 5 Kinetic analysis of P2X variants.A–H, P2X2 variants in GCaMP-mScarletI yeast were injected with 1 mM ATP (black) or 5 mM AMP-PNP (pink) and fluorescence was monitored over a 15-min time course of bath incubation. Error bars represent standard deviation of the mean (n = 3).
The A304W mutation therefore appears to either favor the open conformation of the receptor and/or to have slow rates of pore closure.

SMILES: Nc1ncnc2c1ncn2[C@@H]1O[C@H](COP(=O)(O)OP(=O)(O)NP(=O)(O)O)[C@@H](O)[C@H]1O [AMP-PNP]
- improvement compared to the WT channel (rate of signal onset ΔF/ΔT) (P2X2 F301W+F303Y+A304W; at 500 μM AMP-PNP): 24 fold
- Bottom, best fit value (P2X2 F301W+F303Y+A304W; n = 3): -0.1127
- Hillslope, best fit value (P2X2 F301W+F303Y+A304W; n = 3): 1.945
- Top, best fit value (P2X2 F301W+F303Y+A304W; n = 3): 97.49
- signal decay over the time course (P2X2 A304W): a small amount of signal decay

SMILES: Nc1ncnc2c1ncn2[C@@H]1O[C@H](COP(=O)(O)OP(=O)(O)OP(=O)(O)O)[C@@H](O)[C@H]1O [ATP]
- Bottom, best fit value (P2X2 F301W+F303Y+A304W; n = 3): 0.79
- Hillslope, best fit value (P2X2 F301W+F303Y+A304W; n = 3): 2.37
- Top, best fit value (P2X2 F301W+F303Y+A304W; n = 3): 148.40
- EC50 (P2X2 F301W+F303Y+A304W; four-parameter logistic fit, n = 3, unit inferred, unit M, read-out: EC50, best fit value): 8.88 µM
- signal decay over the time course (P2X2 A304W): no sign of decay
